Patent US20080064702A1, “Use of folates for the prevention and treatment of vascular diseases” (priority 2006, published 2008)
Entries after “also recorded” stand apart in the source; their conditions may differ. Read-outs that look alike come from different tables or passages of the source.

Legend:
saphenous veins [1] = system: saphenous veins
Experimental: (§1) Vessel Harvesting and Ex Vivo Studies. Samples of SV (n=38) and IMA (n=46) from a total of 61 patients, were harvested during CABG operation, as previously described (Channon K M, Trends Cardiovasc Med 2004; 14:323-327; Guzik T J et al., Circulation 2002; 105:1656-1662). Vessel segments were transferred to the laboratory within 30 minutes, in ice cold Krebs-Henseleit buffer. Segments of SV and IMA were incubated with 5-MTHF (0-100 μM) in Krebs-Henseleit buffer for 45 minutes prior to assays of endothelial function, superoxide/peroxynitrite production, radio-labelled arginine/citrulline conversion, western blotting or tissue 5-MTHF and biopterin levels.
(§2) Vasomotor Studies. Endothelium-dependent and endothelium-independent dilatation were assessed using isometric tension studies, as previously described (Guzik T J et al, Circ Res. 2000; 86:e85). Vessel rings were equilibrated and passively pre-tensioned to 3 g, an optimal resting tension that was determined in baseline studies of contractile response to KCl. Following precontraction with phenylephrine (3×10^−6M), vasomotor responses to the endothelium-mediated agonists acetylcholine (ACh, 10^−9M to 10^−5M) and bradykinin (BK, 10^−9 M to 10^−5M), were quantified in 4 equally sized segments from the same vessel. In the ex vivo experiments, vasomotor responses were repeated after incubation for 45 minutes with 0 (control), 1, 10 or 100 μM 5-MTHF, added to the organ bath chambers. Finally, relaxations to the NO donor sodium nitroprusside (SNP, 10^−10M to 10^−6M), were evaluated in the presence of the NOS inhibitor NG-nitro-L-arginine methyl ester (L-NAME; 100 μM).

[2] = system: saphenous veins and internal mammary arteries; settings: SV and IMA, higher 5-MTHF concentrations (10, 100 μM) compared with 1 μM
Experimental: as §1
Superoxide/Peroxynitrite Measurements. Vascular superoxide production was measured from fresh human vessels using lucigenin (5 μM)-enhanced chemiluminescence as previously described (Skatchkov M P et al, Biochem Biophys Res Commun. 1999; 254:319). […] NOS-derived superoxide was measured by adding L-NAME (100 μM) in the equilibrating buffer, and by calculating the difference in superoxide signal compared with basal conditions. Vascular peroxynitrite was determined using luminol (100 μM) instead of lucigenin, and by subtracting the remaining signal after adding the specific peroxynitrite scavenger uric acid (1 mM), as previously described (Laursen J B et al, Circulation. 2001; 103:1282).

[3] = 45 minutes after infusion of 5-MTHF; from 11.0±0.62 before
Excerpt: (§3) In Vivo Studies. Patients (n=56) undergoing CABG participated in a double-blind placebo controlled study, where they received an intravenous infusion of either 5-MTHF (Merck Eprova, Switzerland) or placebo, administered before the CABG.

saphenous veins [4] = system: saphenous veins; remark: listed apart in the source
Experimental: as §3, §2

[5] = system: saphenous veins and internal mammary arteries; settings: ca. 45 min after 0.13 mg/kg i.v., vs placebo
Experimental: as §3
Superoxide/Peroxynitrite Measurements. Vascular superoxide production was measured from fresh human vessels using lucigenin (5 μM)-enhanced chemiluminescence as previously described (Skatchkov M P et al, Biochem Biophys Res Commun. 1999; 254:319). Samples of SV and IMA from the same patient were opened longitudinally to expose the endothelial surface and then equilibrated for 20 minutes in oxygenated (95% O2/5% CO2) Krebs-HEPES buffer (2 mL, pH=7.4) at 37° C. […]. NOS-derived superoxide was measured by adding L-NAME (100 μM) in the equilibrating buffer, and by calculating the difference in superoxide signal compared with basal conditions. Vascular peroxynitrite was determined using luminol (100 μM) instead of lucigenin, and by subtracting the remaining signal after adding the specific peroxynitrite scavenger uric acid (1 mM), as previously described (Laursen J B et al, Circulation. 2001; 103:1282).

[6] = Superoxide scavenging assay, xanthine/xanthine oxidase system; type: biochemical
Experimental: Superoxide and Peroxynitrite Scavenging Assays. The direct superoxide scavenging effect of 5-MTHF was evaluated with the use of xanthine/xanthine oxidase system. Superoxide production was induced by adding xanthine oxidase ([…]/mL) in Krebs HEPES buffer (2 mL, pH=7.4) at 37° C., containing xanthine (0.133 mM) and lucigenin (5 μM), in the presence of 5-MTHF (0-100 μM) or equal concentrations of ascorbic acid as positive control. Peroxynitrite production was induced by adding 3-morpholinosydnonimine (SIN-1, 1 μM) in Krebs HEPES buffer (2 mL, pH=7.4) at 37° C. containing luminol (100 μM), in the presence of different concentrations of 5-MTHF (0-100 μM) or equal concentrations of uric acid as positive control as previously described (Kuzkaya N et al, J Biol Chem. 2003; 278:22546). The scavenging effects of 5-MTHF, vitamin C or uric acid were calculated as the percent inhibition of chemiluminescence compared with control.

[7] = Peroxynitrite scavenging assay, SIN-1 system with luminol; type: biochemical; settings: SIN-1 1 μM; for direct peroxynitrite scavenging effect: concentrations as low as 1 μM, 5-MTHF and uric acid at equal concentrations
Experimental: Superoxide and Peroxynitrite Scavenging Assays. The direct superoxide scavenging effect of 5-MTHF was evaluated with the use of xanthine/xanthine oxidase system. […] The scavenging effects of 5-MTHF, vitamin C or uric acid were calculated as the percent inhibition of chemiluminescence compared with control.

vascular endothelium = settings: vessels from 5-MTHF-treated patients
Experimental: as §3
Oxidative Fluorescent Microtopography. In situ superoxide production was determined in vessel cryosections with the oxidative fluorescent dye dihydroethidium (DHE) (Bendall J K et al, Circ Res. 2005; 97:864). Paired cryosections ([…]) from the same vessel were incubated with DHE (2 μmol/L) in PBS, with or without L-NAME (100 μM). Fluorescence images (x40, Zeiss LSM 510 META laser 6 scanning confocal microscope) were obtained from each vessel quadrant, incorporating the luminal side of the vessel to quantify endothelial cell fluorescence. In each case, segments of vessel rings (with and without L-NAME) were analyzed in parallel with identical imaging parameters. DHE image analysis was carried out in a blinded fashion, and by two independent investigators, by using Image-Pro Plus software (Media Cybernetics).

eNOS = eNOS (Homo sapiens, UniProt P29474); settings: IMA, 5-MTHF 1 μM for 45 minutes; paired control 0.14±0.02%/g
Experimental: as §1

[8] = system: saphenous veins and internal mammary arteries; settings: IMA, 45 min ex vivo with 1 μM 5-MTHF, vs control
Experimental: as §1
Determination of Biopterin Levels. Biopterin levels in human vessels were determined by HPLC, as previously described (Alp N J et al, J Clin Invest. 2003; 112:725) and expressed as pmol/g of tissue. To examine the effect of 5-MTHF on peroxynitrite-induced oxidation of BH4, SIN-1 (2 μM) was used to oxidize BH4 (0.1 μM) in the presence or absence of 5-MTHF (1 μM) at 37° C. for 14 minutes (Milstien S and Katusic Z. Biochem Biophys Res Commun. 1999; 263:681).

[9] = SV, 45 min
Experimental: Plasma and tissue levels of 5-MTHF were determined by high performance liquid chromatography (HPLC), as previously described (Leeming R J et al, Metabolism. 1990; 39:902).

[10] = 0.13 mg/kg i.v.; for plasma concentration: preliminary studies
Experimental: (§4) Patients (n=56) undergoing CABG participated in a double-blind placebo controlled study, where they received an intravenous infusion of either 5-MTHF (Merck Eprova, Switzerland) or placebo, administered before the CABG. […] Samples 5 of SV and IMA were harvested ˜45 minutes after the infusion of 5-MTHF (mean time of harvesting 45.7±2.9 minutes after infusion), and assayed for NO-mediated vasomotor function, vascular superoxide production, tissue 5-MTHF and biopterin levels, as described below.
(§5) Blood samples were collected prior to administration of 5-MTHF or placebo, and at the time of vessel harvesting. […] Plasma and tissue levels of 5-MTHF were determined by high performance liquid chromatography (HPLC), as previously described (Leeming R J et al, Metabolism. 1990; 39:902).

[11] = ~45 min after 0.13 mg/kg i.v.
Experimental: as §4, §5

[12] = 5-MTHF 10 or 100 μM compared with 1 μM
[13] = SV segments ~45 min after 0.13 mg/kg i.v., vs placebo

eNOS, sequence (P29474 2-1203 limits assumed): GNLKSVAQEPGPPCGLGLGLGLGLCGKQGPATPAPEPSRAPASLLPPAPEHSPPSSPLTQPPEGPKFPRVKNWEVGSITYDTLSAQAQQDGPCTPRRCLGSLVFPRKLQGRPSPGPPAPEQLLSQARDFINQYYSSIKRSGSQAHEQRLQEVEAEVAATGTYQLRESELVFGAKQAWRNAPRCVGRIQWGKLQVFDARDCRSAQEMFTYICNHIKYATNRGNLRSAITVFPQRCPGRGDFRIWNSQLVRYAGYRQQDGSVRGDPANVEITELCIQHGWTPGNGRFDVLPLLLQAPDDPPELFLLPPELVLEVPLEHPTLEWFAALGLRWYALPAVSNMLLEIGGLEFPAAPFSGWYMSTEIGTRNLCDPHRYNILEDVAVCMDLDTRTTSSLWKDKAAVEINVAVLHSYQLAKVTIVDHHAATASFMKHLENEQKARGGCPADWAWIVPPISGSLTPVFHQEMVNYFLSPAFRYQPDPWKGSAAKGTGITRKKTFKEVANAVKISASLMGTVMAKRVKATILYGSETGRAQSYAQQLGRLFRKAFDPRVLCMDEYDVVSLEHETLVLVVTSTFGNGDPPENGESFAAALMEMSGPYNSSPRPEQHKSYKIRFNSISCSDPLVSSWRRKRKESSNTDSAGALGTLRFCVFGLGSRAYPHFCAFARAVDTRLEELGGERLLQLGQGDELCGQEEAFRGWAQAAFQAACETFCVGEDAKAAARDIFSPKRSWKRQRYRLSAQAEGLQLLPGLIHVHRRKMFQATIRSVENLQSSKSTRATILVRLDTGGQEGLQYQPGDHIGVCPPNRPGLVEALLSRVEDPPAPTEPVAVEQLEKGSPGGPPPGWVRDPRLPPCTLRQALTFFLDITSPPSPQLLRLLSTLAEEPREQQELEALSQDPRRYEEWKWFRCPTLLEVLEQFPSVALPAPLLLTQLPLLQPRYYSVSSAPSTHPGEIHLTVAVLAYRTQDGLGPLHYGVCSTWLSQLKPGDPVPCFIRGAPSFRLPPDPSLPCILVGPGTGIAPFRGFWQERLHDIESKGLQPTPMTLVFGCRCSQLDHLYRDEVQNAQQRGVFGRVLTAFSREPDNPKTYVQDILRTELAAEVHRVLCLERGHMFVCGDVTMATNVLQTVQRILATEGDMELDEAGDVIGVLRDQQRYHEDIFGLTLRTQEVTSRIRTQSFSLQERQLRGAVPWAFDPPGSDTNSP

CN1c2c(nc(N)[nH]c2=O)NCC1CNc1ccc(C(=O)N[C@@H](CCC(=O)O)C(=O)O)cc1 (stereo partly shown) [5-MTHF, 5-methyltetrahydrofolate]
maximum relaxations to Ach (saphenous veins [1]; [12]): no further increase | maximum relaxations to BK (saphenous veins [1]; [12]): no further increase | vasomotor responses to the endothelium-independent agonist SNP (saphenous veins [1]; 5-MTHF-incubated vs control vessel segments, data not shown): no differences | absolute contractions in response to phenylephrine after incubation (saphenous veins [1]; baseline 7.9±0.8 g, after incubation): remained unchanged | vascular peroxynitrite production [2]: no further reductions | vascular superoxide production [2]: no further reductions | plasma tHcy [3]: 9.42 ± 0.46 µmol/L | absolute pre-contractions to phenylephrine (saphenous veins [4]; 5-MTHF-treated group, placebo 7.72±1.31 g): 8.20 ± 1.26 g | vasomotor responses to acetylcholine (ACh) (saphenous veins [4]; [13]): significantly greater | vasomotor responses to bradykinin (BK) (saphenous veins [4]; [13]): significantly greater | maximal vasorelaxations to ACh (saphenous veins [4]; SV segments ~45 min after 0.13 mg/kg i.v., placebo 19.4±3.3%): 43.2±4.5% | maximal vasorelaxations to BK (saphenous veins [4]; SV segments ~45 min after 0.13 mg/kg i.v., placebo 37.1±3.7%): 51.4±4.2% | vascular superoxide ([5]; IMA): significantly lower | vascular superoxide ([5]; SV): significantly lower | effect on measurable superoxide ([6]; low concentrations (1-10 μM)): no detectable effect | superoxide scavenging effect ([6]; only at concentrations >10 μM (FIG. 5A)): weak superoxide scavenging effect | superoxide scavenging ([6]; very high concentrations (100 μM)): only modest superoxide scavenging | direct peroxynitrite scavenging effect [7]: strong direct peroxynitrite scavenging effect; also recorded: potent scavenging effect | reduction of measurable peroxynitrite ([7]; at 1 μM): 75% | DHE fluorescence in other regions of the vessel wall (vascular endothelium): unaffected | citrulline production (conversion of radio-labelled arginine to citrulline) (eNOS): 0.20±0.03 %/g tissue | BH4/tBio ratio [8]: increased | vascular BH4 [8]: increased | vascular 5-MTHF levels ([9]; incubation with 5-MTHF 1 μM, control 0.40±0.06): 3.40±0.71 nmol/g tissue | vascular 5-MTHF levels ([9]; incubation with 5-MTHF 10 μM): 21.3±8.10 nmol/g tissue | vascular 5-MTHF levels ([9]; incubation with 5-MTHF 100 μM): 57.2±18.9 nmol/g tissue | plasma concentration ([10]; 45 minutes after infusion): 1000 to 2000 nM | plasma 5-MTHF levels ([10]; at the time of vessel harvesting (~45 min), 5-MTHF-treated group): 2.28 ± 0.21 µM | plasma concentration ([10]; immediately after administration): 2000 to 3000 nM | tissue 5-MTHF levels ([11]; IMA, placebo 1.54±0.38): 12.7 ± 2.58 nmol/g | tissue 5-MTHF levels ([11]; SV, placebo 1.19±0.25): 9.35 ± 1.72 nmol/g

O=c1[nH]c(=O)c2[nH]c(=O)[nH]c2[nH]1 [uric acid, reference compound]
direct peroxynitrite scavenging effect [7]: comparable

O=C1O[C@H]([C@@H](O)CO)C(O)=C1O [ascorbic acid, reference compound]
reduction of measurable superoxide ([6]; at 1 μM): 50% | superoxide scavenging effect ([6]; even at low concentrations (FIG. 5A)): expected scavenging effect
